Data reported in article PMC8302598, “Rapid discovery of self-assembling peptides with one-bead one-compound peptide library” (Nature Communications, 2021).
Entries after “also recorded” stand apart in the source; their conditions may differ.

Columns and labels:
[1] = test system: HeLa cells; assay: Cellular uptake and distribution of FITC-labeled peptide assemblies (fluorescence/confocal microscopy); type: cell-based; conditions: 40 μM (methods: 50 μM); for Cellular uptake: HeLa cells, 3% of peptide N-terminally FITC-labeled, 4 h incubation, fluorescence microscope; for Cellular distribution of peptide assemblies: live HeLa cells, 3% FITC-labeled peptide, 4 h, Lyso-Tracker Red, Hoechst
Description: Finally, we examined the biological effects and cellular distribution of the eight self-assembling peptides on HeLa cells. […] In order to observe the nanomaterials under fluorescent microscopy, each peptide preparation was spiked with 3% of the same peptide N-terminally labeled with FITC, and then added to HeLa cells at a final concentration of 40 μM. […] After 4 h of incubation with the peptide assemblies, the cells were observed under a fluorescent microscope (Figs. 4c, d and Supplementary 22). […] It is important to note that LDFPI nanoparticle was small (8 nm diameter) even after 4 h incubation. Its small size may in part explain its ability to pass through the nuclear pore complexes[32],[33]. […] To evaluate the cell uptake mechanism of peptide assemblies (YFTEF, ISDNL, and FGFDP) into the cytoplasm, we treated the cells at 4 °C or with various endocytosis inhibitors (Supplementary Fig. 23).
Hela cell line was purchased from cell culture center of Institute of Basic Medical Sciences, Chinese Academy of Medical Sciences (Beijing, China). Hela cells cultured with pentapeptide nanomaterials (50 μM) were imaged using a Zeiss LSM710 confocal laser scanning microscope (Jena, Germany). The Hela cells were seeded in complete DMEM in a humidified atmosphere with 5% CO2 and then cultured at 37 °C overnight. Then, 1 mL of serum-free fresh medium containing pentapeptide (50 μM) was used for replacing the medium, and the cells were cultured for 4 h and washed with PBS three times before being imaged using a Zeiss LSM710 confocal laser scanning microscope with a 40× objective lens. The cell lines had been authenticated utilizing short tandem repeat DNA profiling. All cells were tested negative for cross-contamination of other human cells and mycoplasma contamination.
Supplementary Figure 22. Confocal microscopy of HeLa cells after incubation with FITC-labeled pentapeptide assemblies (from left to right: FT ISD, IT SVV, Y FT E F, ISDNL , L D FP I, FAG FT, FG FDP, FFVD F ) for 4 h; peptide concentration used was 50 μM. 3% of the assembled peptides was N-terminally labeled with FITC.
Supplementary Figure 23 . Cell uptake pathway analysis for FITC-labeled pentapeptide assemblies YFTEF, ISDNL and […]. a) CLSM images of HeLa cells incubated with pentapeptides (50 μ M ) at di fferent temperatures (37 or 4 °C) and in the presence of various endocytosis inhibitors, such as amiloride (2 mM), M-β-CD (5 mM), and chlorpromazine (50 μM). The scale bar is 10 μm. b) Relevant quantitative analysis of images from ‘a’. 3% of the assembled peptides was N-terminally labeled with FITC, E rror ba rs represent Standard Deviation (n=3). […]

[2] = Fluorescent-activation screening assay on OBOC beads (NBD); type: physicochemical; conditions: peptide N-terminally capped with NBD on TentaGel S beads, in water, fluorescence microscope
Text: It is well known that Aβ16–20 peptide sequence KLVFF can self-assemble into nanofibers in water. We, therefore, chose it as a model peptide to test our screening strategy and used KAAGG as the non-assembling negative control. These control peptides, N-terminally capped with NBD were synthesized with standard Fmoc-chemistry, and TentaGel S resin beads as solid support but without any cleavable linker. After side-chain deprotection, the beads were thoroughly washed with DMF, which was replaced stepwise with water or methanol and then examined under a fluorescent microscope. […] This is expected as the hydrophobicity-sensitive fluorescence dye NBD would fluoresce brightly under hydrophobic condition, in this case, methanol. In water, we expect fluorescent signal emitted from non-sequestered NBD to diminish, unless it is buried inside a hydrophobic environment such as within peptide aggregates or β-sheets formed by KLVFF peptides.
Once the screening method has been validated with our model KLVFF peptide, a totally random pentapeptide library with 19[5] permutations (cysteine was omitted from the library) was constructed using our previously published methods (Supplementary Fig. 3)[23]. Again, TentaGel S resin (loading of 0.31 mmol/g) was used as the solid support. The pentapeptides in the library were N-terminally capped with NBD. […] The positive bead with an intense fluorescent signal (pointed with a solid arrow) was noted. The rest of the beads were considered negative or weak positive beads. From a total of approximately 100 000 beads screened, we selected a total of eight strongest fluorescent positive beads and four dark beads as negative beads. The peptides were then resynthesized in soluble form and purified by high-performance liquid chromatography (HPLC) for testing (Supplementary Figs. 4–12). The amino acid sequences of the eight self-assembling pentapeptides are FTISD, ITSVV, YFTEF, ISDNL, LDFPI, FAGFT, FGFDP, and FFVDF. Not unexpectedly, of the 40 amino acids in these eight pentapeptides, 50% are hydrophobic residues, predominated by Phe (11 Phe, 4 Ile, 3 Val, and 2 Leu). For the remaining 20 amino acids, six are acidic residues (5 Asp and 1 Glu) and seven are neutral and hydrophilic (4 Thr and 3 Ser). The rest are 2 Pro, 2 Gly, 1 Tyr, 1 Asn, and 1 Ala. All eight peptides have at least two hydrophobic residues. Six out of the eight peptides have one negatively charged residue (Asp or Glu). The remaining two peptides are neutral. […] For the Pro containing pentapeptides, LDFPI and FGFDP, the Pro residue, which promotes peptide turns, resides at the fourth and fifth positions, but not in the middle. Not unexpectedly, all the four randomly selected negative non-assembling peptides (RITTR, PLVKA, PFTTR, and QIMRW) have very different sequences, and contain at least one positive charged amino acid.
The OBOC pentapeptide libraries (19[5]) were built using Fmoc strategy SPPS (solid-phase peptide synthesis) (Supplementary Fig. 3). TentaGel S Resin (named N-beads with loading 0.31 mmol/g) was used as the solid phase support. The pentapeptide sequence of X1 X2 X3 X4 X5 was constructed in the library, in which X1−X5 represents either Ala, Asp, Glu, Phe, Gly, His, Ile, Lys, Leu, Met, Asn, Pro, Gln, Arg, Ser, Thr, Val, Trp, and Tyr residues. During the synthesis of OBOC library, solid support beads were mixed and split equally in each cycle, then different amino acids were added, separately, the process was repeated four times. The synthesis of peptides was used anhydrous DMF as solvent. The Fmoc group was removed by 20% (v/v) piperidine in DMF and the deprotection time was 10 min twice. During the coupling step, the HBTU (4 mM) and Fmoc-amino acid (4 mM) were dissolved in DMF containing NMM (0.4 mM). The coupling time was 50 min. Qualitative Fmoc deprotection and coupling were confirmed by ninhydrin test. All the above experiments were carried out in the solid phase peptide synthesis vessels with sieves in it. […]

Row | Substance | Cellular uptake [1] | Cellular distribution of peptide assemblies [1] | Fluorescence (beads) [2]
1 | FAGFT [self-assembling pentapeptide identified from OBOC library] | Obvious cellular uptake | mainly confine to the cytoplasm | On
2 | FFVDF [self-assembling pentapeptide identified from OBOC library, forms nanofibers] | – | formed aggregates outside the cell; also recorded: formed some fluorescent aggregates outside the cells | On
3 | FGFDP [self-assembling pentapeptide identified from OBOC library] | Obvious cellular uptake | distribute only to the cytoplasm, in granular forms | On
4 | FTISD [self-assembling pentapeptide identified from OBOC library] | – | stained both the cell membrane and cytoplasm | On
5 | ISDNL [self-assembling pentapeptide identified from OBOC library] | Obvious cellular uptake | distributed inside the lysosomes throughout the cytoplasm; also recorded: distribute only to the cytoplasm, in granular forms | On
6 | ITSVV [self-assembling pentapeptide identified from OBOC library] | – | localized on the cell membrane; also recorded: staining of the cell membrane and minor staining of the cytoplasm | On
7 | LDFPI [self-assembling pentapeptide identified from OBOC library] | Obvious cellular uptake | localized to the nucleus and perinuclear areas | On
8 | YFTEF [self-assembling pentapeptide identified from OBOC library] | Obvious cellular uptake | distributed throughout the cytoplasm but not the nucleus | On
